# Measurements taken from patent US5254584A, “N-acetonylbenzamides and their use as fungicides” (Rohm and Haas Company, priority 1992, dated 1993).
# Columns and labels:
# strawberry plants = assay: In vivo phytotoxic activity, foliar spray, strawberry; parameters: key: +: indicating presence of a plant growth regulatory effect as compared to a control to which a solvent mixture (acetone/water/methanol) lacking the test compound was applied; 0: A zero indicates no apparent effect; details: foliar spray 2200 g/Ha, seven days after application
# Procedure: (§1) The compounds of Examples 1 and 12 were tested in vivo for phytotoxic activity by applying the compounds to the foliage of cucumber, tomato, bean, lettuce and strawberry plants as a spray at a rate of 2200 g/Ha. The plants were evaluated seven days after spray application of the compounds.
# (§2) Phototoxicity scores are set forth below in Table 6. The phytotoxicity scores use a symbol, "+", indicating presence of a plant growth regulatory effect as compared to a control to which a solvent mixture (acetone/water/methanol) lacking the test compound was applied. A zero indicates no apparent effect. Each score is a composite representing the mode value for three replicate plants.
# tomato plants = assay: In vivo phytotoxic activity, foliar spray, tomato; parameters: key: +: indicating presence of a plant growth regulatory effect as compared to a control to which a solvent mixture (acetone/water/methanol) lacking the test compound was applied; 0: A zero indicates no apparent effect; details: foliar spray 2200 g/Ha, seven days after application
# Procedure: as §1, §2
# Venturia inaequalis = assay: Fungitoxicity assay against Venturia inaequalis (in vitro, microtiter MIC); assay type: cell-based; details: 168 h, minimum inhibitory concentration, 7 days at 25° C.
# Procedure: The compounds of Examples 1-20 were tested in vitro for fungicidal activity and phytotoxicity. A. The compounds were tested in vitro for fungicidal activity against Pythium ultimum, Botrytis cinerea and Venturia inaequalis. Fungitoxicity assay against Venturia inaequalis: Test compounds were dissolved in dimethylsulfoxide at 1 milligram per milliliter (mg/ml), and 50 ul added to 950 ul of yeast extract-dextrose medium (YED, 0.4% yeast extract, 2% dextrose) to give 50 part per million (ppm) solutions. Minimum inhibitory concentration (MIC) values were determined using a microtiter assay with twofold serial dilutions of the prepared 50 ppm solutions (100 ul) in YED medium. Inoculum consisted of a spore suspension of V. inaequalis in YED medium at 2.5×10^5 spores per ml. […] Results of the testing for fungicidal activity against the above named fungi are set forth below in Table 3 as Pythium EC50 (ppm), Botrytis EC50 (ppm) and Venturia MIC (ppm), respectively.
# cucumber plants = assay: In vivo phytotoxic activity, foliar spray, cucumber; parameters: key: +: indicating presence of a plant growth regulatory effect as compared to a control to which a solvent mixture (acetone/water/methanol) lacking the test compound was applied; 0: A zero indicates no apparent effect; details: foliar spray 2200 g/Ha, seven days after application
# Procedure: as §1, §2
# lettuce plants = assay: In vivo phytotoxic activity, foliar spray, lettuce; parameters: key: +: indicating presence of a plant growth regulatory effect as compared to a control to which a solvent mixture (acetone/water/methanol) lacking the test compound was applied; 0: A zero indicates no apparent effect; details: foliar spray 2200 g/Ha, seven days after application
# Procedure: as §1, §2
# [1] = Tobacco root assay for phytotoxicity (in vitro root elongation); details: 7 days, 27° C., read-out: Tob. EC50
# Procedure: The compounds of Examples 1-20 were tested in vitro for fungicidal activity and phytotoxicity.
# B. The compounds were tested in vitro for phytotoxicity in a tobacco root elongation assay.
# Tobacco root assay for Phytotoxicity:
# A dilution series of test compound was prepared in dimethylsulfoxide and 20 ul of each dilution was added to 20 ml of molten nutrient medium, consisting of Murashige and Skoog salt base, 2% sucrose and 1% agar, to give the desired concentrations of test compound. The mixtures were poured immediately into 9 cm diameter petri dishes. Surface-sterilized tobacco seeds were placed on each plate (20 seeds per plate) and the plates incubated in a vertical position in a 27° C. incubator with a 16 hour photoperiod. After 7 days the mean root lengths were calculated, and EC50 values determined from dose response curves.
# Results of the tobacco root assay are set forth below in Table 3 as Tob. EC50 (ppm).
# Botrytis cinerea [2] = assay: Fungitoxicity assay against Botrytis cinerea (in vitro, colony diameter); assay type: cell-based; details: 48 hours at 25° C., read-out: Botrytis EC50
# Procedure: The compounds of Examples 1-20 were tested in vitro for fungicidal activity and phytotoxicity. A. The compounds were tested in vitro for fungicidal activity against Pythium ultimum, Botrytis cinerea and Venturia inaequalis. Fungitoxicity assay against Botrytis cinerea: […] The mixtures were poured immediately into 9 centimeter (cm) diameter petri dishes. Two replicate plates were used for each treatment. Each plate was inoculated with a 7 mm diameter plug taken from the growing edge of a 5 day old culture of B. cinerea on potato dextrose agar. […] Results of the testing for fungicidal activity against the above named fungi are set forth below in Table 3 as Pythium EC50 (ppm), Botrytis EC50 (ppm) and Venturia MIC (ppm), respectively.
# Pythium ultimum [3] = assay: Fungitoxicity assay against Pythium ultimum (in vitro, mycelial dry weight); assay type: cell-based; details: Globisporangium ultimum, 48 hours at 25° C., read-out: Pythium EC50
# Procedure: The compounds of Examples 1-20 were tested in vitro for fungicidal activity and phytotoxicity. A. The compounds were tested in vitro for fungicidal activity against Pythium ultimum, Botrytis cinerea and Venturia inaequalis. Fungitoxicity assay against Pythium ultimum: A dilution series of test compound was prepared in dimethylsulfoxide, and 0.1 milliliter (ml) of each dilution was added to 19.9 ml of a liquid asparagine-sucrose broth ([…]. and Katznelson, K., 1971, Can. J. […] Each plate was inoculated with a mycelial plug, 7 millimeters (mm) in diameter, taken from the growing edge of a culture of Pythium ultimum grown on potato dextrose agar. Two replicate plates were used for each treatment. The increase in mycelial dry weight was determined after growth for 48 hours at 25° C. with shaking on a gyrotary shaker at 60 revolutions per minute (rpm). EC50 values were calculated from dose response curves. As used herein, the terminology "EC50" means the concentration of test compound required to inhibit growth by 50% as compared to a control lacking the test compound. Results of the testing for fungicidal activity against the above named fungi are set forth below in Table 3 as Pythium EC50 (ppm), Botrytis EC50 (ppm) and Venturia MIC (ppm), respectively.
# bean plants = assay: In vivo phytotoxic activity, foliar spray, bean; parameters: key: +: indicating presence of a plant growth regulatory effect as compared to a control to which a solvent mixture (acetone/water/methanol) lacking the test compound was applied; 0: A zero indicates no apparent effect; details: foliar spray 2200 g/Ha, seven days after application
# Procedure: as §1, §2
# Monilinia fructicol = assay: microbe, parasite or virus in culture; assay type: cell-based; details: 72 h, 3 days at room temperature, read-out: MON percent inhibition of fungal growth
# [4] = test system: Colletotrichum lagenarium; assay: microbe, parasite or virus in culture; assay type: cell-based; details: Colletotrichum orbiculare, 72 h, 3 days at room temperature, read-out: COL percent inhibition of fungal growth
# Botrytis cinerea [5] = assay: microbe, parasite or virus in culture; assay type: cell-based; details: 72 h, 3 days at room temperature, read-out: BOC percent inhibition of fungal growth
# Rhizoctonia solani = assay: microbe, parasite or virus in culture; assay type: cell-based; details: 72 h, 3 days at room temperature, read-out: RHI percent inhibition of fungal growth
# Pythium ultimum [6] = assay: microbe, parasite or virus in culture; assay type: cell-based; details: Globisporangium ultimum, 72 h, 3 days at room temperature, read-out: PYU percent inhibition of fungal growth
# [7] = test system: Pseudocercosporella herpotrichoides; assay: microbe, parasite or virus in culture; assay type: cell-based; details: Oculimacula yallundae, 72 h, 3 days at room temperature, read-out: PSH percent inhibition of fungal growth
# Fusarium roseum = assay: microbe, parasite or virus in culture; assay type: cell-based; details: Fusarium sambucinum, 72 h, read-out: FUS percent inhibition of fungal growth
# Phytophthora capsici = assay: microbe, parasite or virus in culture; assay type: cell-based; details: 72 h, 3 days at room temperature, read-out: PHY percent inhibition of fungal growth
# Piricularia oryzae = assay: organism not typed; assay type: cell-based; details: 72 h, read-out: PIR percent inhibition of fungal growth
# Cercospora beticola = assay: microbe, parasite or virus in culture; assay type: cell-based; details: 72 h, 3 days at room temperature, read-out: CER percent inhibition of fungal growth
Compound,MIC (Venturia inaequalis),IC50 at 168 h [1],IC50 (Botrytis cinerea [2]),IC50 (Pythium ultimum [3]),further results
"CCC(C)(NC(=O)c1cccc(C=NOC)c1)C(=O)CCl (stereo not drawn) [Example 1, 3-(3'-Methoxyiminomethylbenzamido)-1-chloro-3-methylpentan-2-one]",1.56 µg/mL,1.86 µg/mL,9.5 µg/mL,0.31 µg/mL,"phytotoxicity score, Strawberry (strawberry plants): +; phytotoxicity score, Tomato (tomato plants): 0; phytotoxicity score, Cucumber (cucumber plants): 0; phytotoxicity score, Lettuce (lettuce plants): 0; phytotoxicity score, Bean (bean plants): 0"
"CON=Cc1cccc(C(=O)NC(C)(C)C(=O)CCl)c1 [Example 2, 3-(3'-Methoxyiminomethylbenzamido)-1-chloro-3-methylbutan-2-one]",12.5 µg/mL,4.94 µg/mL,71.3 µg/mL,1.61 µg/mL,
CCON=Cc1cccc(C(=O)NC(C)(CC)C(=O)CCl)c1 (stereo not drawn) [Example 3],6.25 µg/mL,5.35 µg/mL,21.8 µg/mL,2.07 µg/mL,
CCON=Cc1cccc(C(=O)NC(C)(CC)C(=O)C(Cl)Cl)c1 (stereo not drawn) [Example 4],> 25 µg/mL,,68.9 µg/mL,68.4 µg/mL,
"CCC(C)(NC(=O)c1cccc(C=NOC)c1)C(=O)C(Cl)Cl (stereo not drawn) [Example 5, 3-(3'-Methoxyiminomethylbenzamido)-1,1-dichloro-3-methylpentan-2-one]",> 25 µg/mL,,54.6 µg/mL,16.3 µg/mL,
CCC(C)(NC(=O)c1cccc(C=NOCC(=O)OC)c1)C(=O)CCl (stereo not drawn) [Example 7],> 25 µg/mL,9.48 µg/mL,> 100 µg/mL,22.8 µg/mL,
CCC(C)(NC(=O)c1cccc(C=NOC(C)(C)C)c1)C(=O)CCl (stereo not drawn) [Example 8],> 25 µg/mL,46.8 µg/mL,> 100 µg/mL,173 µg/mL,
"CCC(C)(NC(=O)c1cc(Cl)cc(C=NOC)c1)C(=O)CCl (stereo not drawn) [Example 9, N-[3'-(1'-chloro-3'-methyl-2'-oxopentan)]-3-chloro-5-methoxyiminomethylbenzamide]",0.05 µg/mL,0.06 µg/mL,0.25 µg/mL,0.05 µg/mL,inhibition at 25 ppm (Monilinia fructicol): 100%; inhibition at 25 ppm [4]: 90%; inhibition at 25 ppm (Botrytis cinerea [5]): 90%; inhibition at 25 ppm (Rhizoctonia solani): 90%; inhibition at 25 ppm (Pythium ultimum [6]): 100%; inhibition at 25 ppm [7]: 100%; inhibition at 25 ppm (Fusarium roseum): 75%; inhibition at 25 ppm (Phytophthora capsici): 100%; inhibition at 25 ppm (Piricularia oryzae): 100%; inhibition at 25 ppm (Cercospora beticola): 100%
"CCC(C)(NC(=O)c1ccc(C=NOC)cc1)C(=O)CCl (stereo not drawn) [Example 10, 3-(4'-Methoxyiminomethylbenzamido)-1-chloro-3-methylpentan-2-one]",,21.7 µg/mL,,1.57 µg/mL,
"CCC(C)(NC(=O)c1cccc(C=NOC)c1)C(=O)CSC#N (stereo not drawn) [Example 13, N-[3'-(1'-thiocyano-3'-methyl-2'oxopentan)]-3-methoxyiminomethylbenzamide]",,> 20 µg/mL,,7.38 µg/mL,
"CCC(C)(NC(=O)c1ccc(Cl)c(C=NOC)c1)C(=O)CCl (stereo not drawn) [Example 14, N-[3'-(1'-chloro-3'-methyl-2'-oxopentan)]-4-chloro-3-methoxyiminomethylbenzamide]",25 µg/mL,1.25 µg/mL,28.1 µg/mL,4.68 µg/mL,
"CCC(C)(NC(=O)c1cc(C=NOC)cc(C=NOC)c1)C(=O)CCl (stereo not drawn) [Example 15, N-[3'-(1'-chloro-3'-methyl-2'-oxopentan)]-3,5-dimethoxyiminomethylbenzamide]",1.56 µg/mL,2.33 µg/mL,4.19 µg/mL,4.16 µg/mL,
"CCC(C)(NC(=O)c1ccc(C=NOC)c(Cl)c1)C(=O)CCl (stereo not drawn) [Example 16, N-[3'-(1'-chloro-3'-methyl-2'-oxopentan)]-3-chloro-4-methoxyiminomethylbenzamide]",6.25 µg/mL,11.3 µg/mL,12.6 µg/mL,0.58 µg/mL,
CCC(C)(NC(=O)c1cccc(C(C)=NOC)c1)C(=O)CCl (stereo not drawn) [Example 17],> 25 µg/mL,,97.3 µg/mL,24.2 µg/mL,
CCC(C)(NC(=O)c1cc(C)cc(C=NO)c1)C(=O)CCl (stereo not drawn) [Example 18],> 25 µg/mL,,53.9 µg/mL,5.95 µg/mL,
"CCC(C)(NC(=O)c1ccc(C(C)=NOC)cc1)C(=O)CCl (stereo not drawn) [Example 19, 3-(4'-Methoxyiminomethyl(methyl)benzamido)-1-chloro-3-methylpentan-2-one]",> 25 µg/mL,,> 100 µg/mL,> 10 µg/mL,
"CCC(C)(NC(=O)c1cc(Cl)c(C=NOC)c(Cl)c1)C(=O)CCl (stereo not drawn) [Example 20, N-[3'-(1'-chloro-3'-methyl-2'-oxopentan)]-3,5-dichloro-4-methoxyiminobenzamide]",,1 µg/mL,,0.23 µg/mL,
